Measurements published in publication PMC10744032, “Regioselective and Stereoselective Synthesis of Parthenolide Analogs by Acyl Nitroso-Ene Reaction and Their Biological Evaluation against Mycobacterium tuberculosis” (International Journal of Molecular Sciences, 2023).
In brackets after ≈: the same amount, converted by molar mass. Read-outs that look alike come from different tables or passages of the source.

Tests used:
[1] = Cytotoxicity by live imaging (Hoechst 33342 / propidium iodide); format: cell-based; conditions: mouse
Experimental: The cytotoxicity of the compounds to BALB/3T3 cells was determined using live imaging following both Hoechst 33342 and propidium iodide staining. Briefly, BALB/3T3 cells were seeded in a 384-well plate and 24 h later, the compounds were added (0, 12.5, 25, 50, and 100 µM) to the culture medium, as well as Hoechst 33342 and propidium iodide (PI). Then, 24 h and 48 h after the compounds were added, live imaging was performed using an In Cell Analyzer 6000 (STP GE Healthcare, Glascow, UK). The cytotoxicity was defined based on the ratio of the population of dead or dying cells (propidium iodide staining) to the total cell population (Hoechst staining), as determined using Columbus software 2.9.1 (PerkinElmer Informatics, WA, USA). The compounds were tested in triplicate. Carfilzomib (500, 250, 140, and 60 nM) was used as the positive control in this assay.

[2] = Kinetic solubility in PBS by LC-MS/MS; format: physicochemical; conditions: for solubility at 24 h: kinetic from dmso stock; for fold higher solubility in PBS compared to parthenolide: relative to parthenolide
Experimental: The kinetic solubility was determined using LC–MS/MS analysis in PBS at pH 7.4. Briefly, a 10 mM 100% DMSO solution of the compound was diluted 50-fold either in PBS at pH 7.4 (in triplicate) or in DMSO in polypropylene tubes (n = 3 for PBS and n = 6 for DMSO). The tubes were gently shaken for 24 h at 21 °C. Then, the three PBS tubes and three of the six DMSO tubes were centrifuged for 5 min at 4000 rpm and filtered over 0.45 μm filters (Millex-LH Millipore). Then, 40 μL of each solution was diluted in 160 μL of MeCN and 40 µL of Milli-Q water and transferred to matrix tubes for the LC–MS/MS analysis. The solubility was determined according to the following formula: Solubility (μM) = (AUC (filtered PBS)/AUC (not filtered DMSO)) × 200. The test was validated if (AUC (not filtered DMSO) − AUC (filtered DMSO))/AUC (not filtered DMSO) ≤ 10%.

[3] = tested on: M. tuberculosis H37Rv; experiment: microbe, parasite or virus in culture; format: cell-based, Mycobacterium tuberculosis; conditions: Mycobacterium tuberculosis, H37RV, 168 h, 7 days incubation, resazurin readout, tested 300 to 2.3 µM, read-out: MIC90 M. tuberculosis (REMA)
[4] = tested on: Staphylococcus aureus (SH1000); experiment: microbe, parasite or virus in culture; format: cell-based; conditions: Staphylococcus aureus; 5 h incubation, resazurin readout; tested 300 to 2.3 µM; read-out: MIC90 S. aureus (REMA)
[5] = tested on: M. tuberculosis H37Rv expressing GFP (H37Rv::pJKD6); experiment: microbe, parasite or virus in culture; format: cell-based, Mycobacterium tuberculosis; conditions: Mycobacterium tuberculosis, H37RV, 168 h; read-out: MIC98 M. tuberculosis (GFP)
[6] = BALB/3T3 cells, 0, 12.5, 25, 50, 100 µM, imaging at 24 h and 48 h, read-out: Cytotoxicity Balb3T3 CC50
[7] = aqueous buffer, kinetic solubility, PBS pH 7.4, 24 h at 21 °C, from 10 mM DMSO solution diluted 50-fold, read-out: Solubility

Compound	CC50 [1]	solubility at 24 h ([2]; 21 °C, pH 7.4, aqueous buffer)	MIC90 [3]	MIC90 [4]	MIC [5]	fold higher solubility in PBS compared to parthenolide [2]	CC50 [1, 6]	solubility at 24 h [2, 7]
C=C1CC[C@H]2C(=C)C(=O)O[C@@H]2[C@@H]2O[C@]2(C)CC[C@H]1N(O)C(=O)Nc1ccccc1 [Compound 4, 1-hydroxy-1-[(1S,2S,4R,7R,11S)-4-methyl-8,12-dimethylene-13-oxo-3,14-dioxatricyclo[9.3.0.02,4]tetradecan-7-yl]-3-phenyl-urea]	25 µM	186 µM (≈ 74.1 µg/mL)	19 to 38 µM (≈ 7.57 to 15.1 µg/mL)	> 300 µM	9.4 to 19 µM (≈ 3.75 to 7.57 µg/mL)	–	–	–
C=C1CC[C@H]2C(=C)C(=O)O[C@@H]2[C@@H]2O[C@]2(C)CC[C@H]1N(O)C(=O)Nc1ccc(C)cc1 [Compound 5, 1-hydroxy-1-[(1S,2S,4R,7R,11S)-4-methyl-8,12-dimethylene-13-oxo-3,14-dioxatricyclo[9.3.0.02,4]tetradecan-7-yl]-3-(p-tolyl)urea]	12.5 µM	186 µM (≈ 76.7 µg/mL)	19 to 38 µM (≈ 7.84 to 15.7 µg/mL)	> 300 µM	19 µM (≈ 7.84 µg/mL)	–	–	–
C=C1CC[C@H]2C(=C)C(=O)O[C@@H]2[C@@H]2O[C@]2(C)CC[C@H]1N(O)C(=O)NCc1ccccc1 [Compound 6, 3-benzyl-1-hydroxy-1-[(1S,2S,4R,7R,11S)-4-methyl-8,12-dimethylene-13-oxo-3,14-dioxatricyclo [9.3.0.02,4]tetradecan-7-yl]urea]	> 25 µM	196 µM (≈ 80.8 µg/mL)	38 to 75 µM (≈ 15.7 to 30.9 µg/mL)	> 300 µM	19 to 38 µM (≈ 7.84 to 15.7 µg/mL)	–	–	–
C=C1CC[C@H]2C(=C)C(=O)O[C@@H]2[C@@H]2O[C@]2(C)CC[C@H]1N(O)C(=O)Nc1ccc(OC)cc1 [Compound 7, 1-hydroxy-3-(4-methoxyphenyl)-1-[(1S,2S,4R,7R,11S)-4-methyl-8,12-dimethylene-13-oxo-3,14-dioxatricyclo[9.3.0.02,4]tetradecan-7-yl]urea]	25 µM	184 µM (≈ 78.8 µg/mL)	19 µM (≈ 8.14 µg/mL)	–	19 µM (≈ 8.14 µg/mL)	–	–	–
C=C1CC[C@H]2C(=C)C(=O)O[C@@H]2[C@@H]2O[C@]2(C)CC[C@H]1N(O)C(=O)Nc1ccc(F)cc1 [Compound 8, 3-(4-fluorophenyl)-1-hydroxy-1-[(1S,2S,4R,7R,11S)-4-methyl-8,12-dimethylene-13-oxo-3,14-dioxatricyclo[9.3.0.02,4]tetradecan-7-yl]urea]	> 25 µM	188 µM (≈ 78.3 µg/mL)	19 µM (≈ 7.91 µg/mL)	–	19 µM (≈ 7.91 µg/mL)	1.3 fold	–	–
C=C1CC[C@H]2C(=C)C(=O)O[C@@H]2[C@@H]2O[C@]2(C)CC[C@H]1N(O)C(N)=O [Compound 9, 1-hydroxy-1-[(1S,2S,4R,7R,11S)-4-methyl-8,12-dimethylene-13-oxo-3,14-dioxatricyclo[9.3.0.02,4]tetradecan-7-yl]urea]	> 100 µM	> 200 µM	~150 µM (≈ 48.4 µg/mL)	–	75 to 150 µM (≈ 24.2 to 48.4 µg/mL)	1.5 fold	–	–
C=C1CC[C@H]2C(=C)C(=O)O[C@@H]2[C@@H]2O[C@]2(C)CC[C@H]1N(O)C(=O)Nc1ccc2c(c1)OCO2 [Compound 10, 3-(1,3-benzodioxol-5-yl)-1-hydroxy-1-[(1S,2S,4R,7R,11S)-4-methyl-8,12-dimethylene-13-oxo-3,14-dioxatricyclo[9.3.0.02,4]tetradecan-7-yl]urea]	12.5 µM	182 µM (≈ 80.5 µg/mL)	38 µM (≈ 16.8 µg/mL)	–	19 µM (≈ 8.41 µg/mL)	–	–	–
C=C1CC[C@H]2C(=C)C(=O)O[C@@H]2[C@@H]2O[C@]2(C)CC[C@H]1N(O)C(=O)NCCCOCC [Compound 11, 3-(3-ethoxypropyl)-1-hydroxy-1-[(1S,2S,4R,7R,11S)-4-methyl-8,12-dimethylene-13-oxo-3,14-dioxatricyclo[9.3.0.02,4]tetradecan-7-yl]urea]	> 100 µM	197 µM (≈ 80.5 µg/mL)	150 µM (≈ 61.3 µg/mL)	–	150 µM (≈ 61.3 µg/mL)	–	–	–
C=CCOC(=O)N(O)[C@@H]1CC[C@@]2(C)O[C@H]2[C@H]2OC(=O)C(=C)[C@@H]2CCC1=C [Compound 13, Allyl-N-hydroxy-N-[(1S,2S,4R,7R,11S)-4-methyl-8,12-dimethylene-13-oxo-3,14-dioxatricyclo [9.3.0.02,4]tetradecan-7-yl]carbamate]	> 12.5 µM	192 µM (≈ 69.8 µg/mL)	38 to 75 µM (≈ 13.8 to 27.3 µg/mL)	> 300 µM	38 µM (≈ 13.8 µg/mL)	–	–	–
C=C1CC[C@H]2C(=C)C(=O)O[C@@H]2[C@@H]2O[C@]2(C)CC[C@H]1N(O)C(=O)OCc1ccccc1 [Compound 14, Benzyl-N-hydroxy-N-[(1S,2S,4R,7R,11S)-4-methyl-8,12-dimethylene-13-oxo-3,14-dioxatricyclo[9.3.0.02,4]tetradecan-7-yl]carbamate]	> 12.5 µM	191 µM (≈ 79 µg/mL)	75 µM (≈ 31 µg/mL)	> 300 µM	38 µM (≈ 15.7 µg/mL)	–	–	–
C=C1CC[C@H]2C(=C)C(=O)O[C@@H]2[C@@H]2O[C@]2(C)CC[C@H]1N(O)C(=O)Oc1ccccc1 [Compound 17, Phenyl-N-hydroxy-N-[(1S,2S,4R,7R,11S)-4-methyl-8,12-dimethylene-13-oxo-3,14-dioxatricyclo[9.3.0.02,4]tetradecan-7-yl]carbamate]	–	–	38 µM (≈ 15.2 µg/mL)	–	38 µM (≈ 15.2 µg/mL)	–	12.5 µM	189 µM (≈ 75.5 µg/mL)
C=C1CC[C@H]2C(=C)C(=O)O[C@@H]2[C@@H]2O[C@]2(C)CC[C@H]1N(O)C(=O)OCC(C)C [Compound 18, Isobutyl-N-hydroxy-N-[(1S,2S,4R,7R,11S)-4-methyl-8,12-dimethylene-13-oxo-3,14-dioxatricyclo[9.3.0.02,4]tetradecan-7-yl]carbamate]	50 µM	190 µM (≈ 72.1 µg/mL)	38 µM (≈ 14.4 µg/mL)	–	19 µM (≈ 7.21 µg/mL)	–	–	–
C=C1CC[C@H]2C(=C)C(=O)O[C@@H]2[C@@H]2O[C@]2(C)CC[C@H]1N(O)C(=O)OCC [Compound 19, Ethyl-N-hydroxy-N-[(1S,2S,4R,7R,11S)-4-methyl-8,12-dimethylene-13-oxo-3,14-dioxatricyclo[9.3.0.02,4]tetradecan-7-yl]carbamate]	> 12.5 µM	198 µM (≈ 69.6 µg/mL)	75 µM (≈ 26.4 µg/mL)	–	75 µM (≈ 26.4 µg/mL)	–	–	–
C=C1CC[C@H]2C(=C)C(=O)O[C@@H]2[C@@H]2O[C@]2(C)CC[C@H]1N(O)C(=O)Oc1ccc2c(c1)OCO2 [Compound 20, 1,3-benzodioxol-5-yl-N-hydroxy-N-[(1S,2S,4R,7R,11S)-4-methyl-8,12-dimethylene-13-oxo-3,14-dioxatricyclo[9.3.0.02,4]tetradecan-7-yl]carbamate]	–	–	75 µM (≈ 33.3 µg/mL)	–	37.5 to 75 µM (≈ 16.6 to 33.3 µg/mL)	–	> 12.5 µM	182 µM (≈ 80.7 µg/mL)
C=C1CC[C@H]2C(=C)C(=O)O[C@@H]2[C@@H]2O[C@]2(C)CC[C@H]1N(O)C(=O)OCCOC [Compound 21, 2-methoxyethyl-N-hydroxy-N-[(1S,2S,4R,7R,11S)-4-methyl-8,12-dimethylene-13-oxo-3,14-dioxatricyclo[9.3.0.02,4]tetradecan-7-yl]carbamate]	100 µM	> 200 µM	150 µM (≈ 57.2 µg/mL)	–	150 to 300 µM (≈ 57.2 to 114 µg/mL)	–	–	–
C=C1CC[C@H]2C(=C)C(=O)O[C@@H]2[C@@H]2O[C@]2(C)CC[C@H]1N(O)C(=O)OC1CCOCC1 [Compound 22, Tetrahydropyran-4-yl-N-hydroxy-N-[(1S,2S,4R,7R,11S)-4-methyl-8,12-dimethylene-13-oxo-3,14-dioxatricyclo[9.3.0.02,4]tetradecan-7-yl]carbamate]	> 50 µM	193 µM (≈ 78.6 µg/mL)	75 µM (≈ 30.6 µg/mL)	–	38 µM (≈ 15.5 µg/mL)	–	–	–
C=C1CC[C@H]2C(=C)C(=O)O[C@@H]2[C@@H]2O[C@]2(C)CC/C1=N/O [Compound 23, (1S,2S,4R,7Z,11S)-7-hydroxyimino-4-methyl-8,12-dimethylene-3,14-dioxatricyclo[9.3.0.02,4] tetradecan-13-one]	–	186 µM (≈ 51.6 µg/mL)	–	> 300 µM	–	–	–	–
C/C1=C\CC[C@@]2(C)O[C@H]2[C@H]2OC(=O)C(C)[C@@H]2CC1 (stereo partly drawn) [Compound 26, (1S,2S,4R,7E,11S)-4,8,12-trimethyl-3,14-dioxatricyclo[9.3.0.02,4]tetradec-7-en-13-one]	–	–	300 µM (≈ 75.1 µg/mL)	–	300 µM (≈ 75.1 µg/mL)	–	–	–
CO[C@H]1/C=C/O[C@@]2(C)Oc3c(C)c(O)c4c(O)c(c(/C=N/N5CCN(C)CC5)c(O)c4c3C2=O)NC(=O)/C(C)=C\C=C\[C@H](C)[C@H](O)[C@@H](C)[C@@H](O)[C@@H](C)[C@H](OC(C)=O)[C@@H]1C [Rifampicin, reference compound]	–	–	< 2.3 µM	< 2.3 µM	< 2.3 µM	–	–	–
